Laboratory results from PubChem BioAssay AID652241 (Broad Institute, 2013).
Records with an inconclusive call do not appear. The source made the active and inactive calls.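 How the source made its calls: active means fitted curve reaches activity 50 in the expected rising direction at or below the top valid tested dose; inconclusive means no clear call, values can overlap the other calls; inactive means activity in the wrong direction, and the rest.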

These compounds were tested against Virion infectivity factor (Human immunodeficiency virus type 1 group M subtype B (isolate BH10)) + Virion infectivity factor (Human immunodeficiency virus type 1 group M subtype B (isolate BRU/LAI)) + Virion infectivity factor (Human immunodeficiency virus type 1 group M subtype B (isolate PCV12)) + Virion infectivity factor (Human immunodeficiency virus type 1 group M subtype B (isolate HXB2)) (UniProt P69720+P69721+P69722+P69723) (assay: dose-dependent disruption of HIV Vif self-association – imaging, HEK293T, cherry-picks, dose response (AID 652241;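 further: imaged cell signal that rises when Vif self-association is disrupted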)). Conditions: HEK293T Vif multimerization imaging, 24 h.

Row | SMILES | AC50
1 | CC(=O)Nc1ccc(NC(=O)COc2ccccc2C(=O)Nc2cccc(Cl)c2Cl)cc1 | 5.9 µM
2 | NC(CCc1ccccc1)c1csc(Nc2ccc(C(=O)c3ccccc3)cc2)n1 (stereo not drawn) | 10.2 µM
3 | COC(=O)c1ccc(NCc2cc(O)ccc2O)cc1 | 5.96 µM
4 | COc1cccc(N2CCN(C(=O)c3ccc(CS(=O)c4ccc(C)cc4)o3)CC2)c1 (stereo not drawn) | 12.9 µM
5 | COc1ccc(-c2cc(C(F)(F)F)n3nc(C(=O)NCc4ccco4)c(Cl)c3n2)cc1 | 8.52 µM
6 | CCN(CC)C1Oc2cc3c(cc2C(c2cc(OC)c(OC)c(OC)c2)C1C)OCO3 (stereo not drawn) | 6.24 µM
7 | Cc1cc(Cl)n2c(nc3cc(F)c(F)cc32)c1C#N | 5.68 µM
8 | CC(C)OC(=O)c1ccc(NCc2cc(O)ccc2O)cc1Cl | 5 µM
9 | Cc1nnc2ccc(-c3cccc(NS(=O)(=O)c4cc(F)ccc4F)c3)nn12 | 10.7 µM
10 | COc1ccc(CCNc2nnc(Sc3nnnn3-c3ccccc3)s2)cc1OC | 5.92 µM
11 | Cc1cnc(NC(=O)CN2CCN(c3ccccn3)CC2)s1 | 9.23 µM
12 | Clc1ccc(-n2nnnc2Sc2ncnc3sccc23)cc1 | > 6.8 µM (inactive)
13 | CCOc1ccc(Nc2nc3c(C)cccc3cc2C#N)cc1 | 11.9 µM
14 | CC(=O)Nc1ccc(-c2ccnc3c2CC(C(=O)NCc2ccccc2)O3)cc1 (stereo not drawn) | 1.28 µM
15 | Cc1nn(Cc2c(Cl)cccc2Cl)c(C)c1NC(=O)c1cnn2c(C(F)F)cc(-c3ccccc3)nc12 | 16.5 µM
16 | CCc1ccc(N2C(=O)/C(=C/c3cccs3)N(CC(=O)OC)C2=S)cc1 | 18.8 µM
17 | CCOc1ccc(N2C(=O)/C(=C/c3cccs3)N(CC(=O)OC)C2=S)cc1 | > 19.5 µM (inactive)
18 | COc1cccc(-c2cc(=O)c3cc(NC(=O)c4ccccc4)ccc3[nH]2)c1 | 5.04 µM

Same assay, conditions: HEK293T Vif multimerization imaging, 24 h; at 0.75 µM (top of the series)

Row | SMILES | activity, higher = inhibition
19 | O=C1S/C(=C/c2ccc(N3CCOCC3)o2)C(=O)N1Cc1c(F)cccc1Cl | inactive

Same assay, conditions: HEK293T Vif multimerization imaging, 24 h; at 2.1 µM (top of the series)

Row | SMILES | activity, higher = inhibition
20 | Cc1nc(NC(=O)C(C)Oc2cccc(Cl)c2)sc1C(=O)N(C)C (stereo not drawn) | inactive

Same assay, conditions: HEK293T Vif multimerization imaging, 24 h; at 6.8 µM (top of the series)

Row | SMILES | activity, higher = inhibition
21 | Cc1nc(C)n(CC(=O)N2CCCC(C(=O)c3ccc(C(F)(F)F)cc3)C2)n1 (stereo not drawn) | inactive

Same assay, conditions: HEK293T Vif multimerization imaging, 24 h; at 19.5 µM (top of the series)

Row | SMILES | activity, higher = inhibition
22 | CC(C)CN1C(=O)C(=O)N(CC(=O)c2ccc3c(c2)OCO3)C1=O | inactive
23 | CC1CN(S(=O)(=O)c2ccc(C(=O)NCCCn3ccnc3)cc2)CC(C)O1 (stereo not drawn) | inactive
24 | CCOC(=O)c1c(C)[nH]c(-c2csc(N)n2)c1C | inactive
25 | COc1ccc(-c2coc3c(C(=O)Nc4cccc(C(C)=O)c4)cccc23)c(C)c1 | inactive
26 | CC(C)CN(C(=O)COC(=O)CSc1ccccc1)c1c(N)n(Cc2ccccc2)c(=O)[nH]c1=O | inactive
27 | CCOc1ccc(CC(=O)Nc2sc(Cc3ccccc3)c(C)c2C(N)=O)cc1OCC | inactive
28 | CC(C)(C)NC(=O)CN(Cc1ccc(F)cc1)C(=O)Cn1nnc(-c2ccc(F)cc2)n1 | inactive
29 | Cc1ccnc(SCC(=O)n2c3c(c4ccccc42)CC(C)CC3)n1 (stereo not drawn) | inactive
30 | O=C(CCCOc1ccc(Br)cc1)NNC(=O)c1ccncc1 | inactive
31 | Cc1ccc(-c2cc(C(=O)NCc3ccccn3)c3ccccc3n2)cc1C | inactive
32 | O=C(Nc1cccc(-c2cc3ccccc3oc2=O)c1)c1ccc(Br)o1 | inactive
33 | CCN1C(=O)c2cccc3c(S(=O)(=O)Nc4ccccc4O)ccc1c23 | inactive
34 | COC(=O)c1sc(-c2ccc(Cl)cc2)cc1NC(=O)CSCC(=O)O | inactive
35 | O=C(CSc1nnc(CNc2ccc(F)cc2)o1)c1ccccc1 | inactive
36 | COCc1cc(C)nc(SCC(=O)Nc2cccc3cccnc23)c1C#N | inactive
37 | COC(=O)c1cc(Cl)c(NC(=O)c2cc3ccccc3o2)cc1OC | inactive
38 | CC(OC(=O)c1c[nH]c2ccccc12)C(=O)N1CCCC1 (stereo not drawn) | inactive
39 | CCCCCCn1c(N(CC)CC)nc2c1c(=O)[nH]c(=O)n2C | inactive
40 | COc1ccc(C(=O)NCc2oc(-c3ccccc3)cc2C(=O)O)cc1 | inactive
41 | N#Cc1c2ccc(OCC(N)=O)cc2n2ccccc12 | inactive
42 | CCC(=O)Nc1ccc(-c2cc3ccccc3oc2=O)cc1 | inactive
43 | CCC(C)NC(=O)Cn1c(=O)n(-c2ccccc2)c(=O)c2ccc(C(=O)NCc3ccco3)cc21 (stereo not drawn) | inactive
44 | COc1ccc(C=C2CS(=O)(=O)CC(=Cc3ccc(OC)cc3)C2=O)cc1 | inactive
45 | COc1ccccc1CNC(=O)CSC1=NCCS1 | inactive
46 | COc1ccccc1Oc1coc2cc(OCC(N)=O)ccc2c1=O | inactive
47 | O=C(c1ccc(Cl)c(Cl)c1)N(Cc1ccco1)c1ccc(O)cc1 | inactive

Row | SMILES | activity, higher = inhibition
48 | COc1ccc(CN(CC(=O)NC2CCCC2)C(=O)CN2C(=O)COc3ccccc32)cc1 | inactive
49 | CC1CN(S(=O)(=O)c2cccc(C(=O)N3CCC(C(N)=O)CC3)c2)CC(C)O1 (stereo not drawn) | inactive
50 | Cc1cc(NS(=O)(=O)c2ccc(NC(=O)c3ccc(Cl)cc3Cl)cc2)no1 | inactive
51 | COc1cc(NC(=O)NCc2ccco2)ccc1-c1ccc(NC(=O)NCc2ccco2)cc1OC | inactive
52 | COc1ccccc1NC(=O)c1ccccc1NC(=O)c1ccccn1 | inactive
53 | Cc1cc(/C=C2\C(=N)N3C(SCc4ccccc4)=NSC3=NC2=O)c(C)n1Cc1ccccc1 | inactive
54 | CCCCOc1cccc2c(=O)n(CC(=O)Nc3ccc4c(c3)OCCO4)ccc12 | inactive
55 | CN1CCc2nc3ccc(F)cc3c(C(N)=O)c2C1 | inactive
56 | CNC(=O)c1ccc(NC(=O)c2cc(S(=O)(=O)N(C)C)ccc2N2CCCC2)cc1 | inactive
57 | COc1ccc2c(CC(=O)Nc3ccccc3OC)coc2c1 | inactive
58 | Cc1nn2c(COc3ccc(NC(=O)c4ccccc4Cl)cc3)nnc2c2ccccc12 | inactive
59 | COc1ccc(Br)cc1C(=O)Nc1ccc(N2CCCC2)cc1 | inactive
60 | Cc1c(NC(=O)CC(O)(C(F)(F)F)C(F)(F)F)c(=O)n(-c2ccccc2)n1C | inactive
61 | O=C(Nc1cnccn1)Nc1ccccc1Cl | inactive
62 | O=C(O)c1ccc(-c2nc(-c3cccc(C(F)(F)F)c3)cs2)cc1 | inactive
63 | COc1ccccc1C(=O)COC(=O)C1(C)CC1(Cl)Cl (stereo not drawn) | inactive
64 | CCOc1cccc(C(=O)Nc2ccc3oc(Cc4ccc(Cl)cc4)nc3c2)c1 | inactive
65 | CCOc1ccc(NC(=O)CN(C)C(=O)c2cc(S(=O)(=O)N3CCCCC3)ccc2Cl)cc1OCC | inactive
66 | N#Cc1c(-c2ccccc2)cc(C2CC2)nc1SCC(=O)c1cccs1 | inactive
67 | Cc1cccc(N2CCN(C(=O)c3cc4ccccc4oc3=O)CC2)c1C | inactive
68 | CCN(CCCNC(=O)C1CCC(=O)N1Cc1ccc(C)cc1)c1cccc(C)c1 (stereo not drawn) | inactive
69 | COc1ccc(S(=O)(=O)Nc2cccc3ccc(O)cc23)cc1 | inactive
70 | COc1cc(-c2cc(=O)c3c(O)c(OC)c(OC)cc3o2)cc(OC)c1O | inactive
71 | CN(C)C(=O)c1cc(Br)ccc1Cl | inactive
72 | CCOC(=O)C1CCCN(C(=O)c2cc(S(=O)(=O)N(C)C)ccc2N2CCCC2)C1 (stereo not drawn) | inactive
73 | CCOC(=O)c1c(NC(=O)CCC(=O)N2CCOCC2)sc2c1CC(C)(C)OC2 | inactive
